This is an account of results in patent US10010525B2, “Methods of inducing anesthesia” (The Regents of the University of California, priority 2012, dated 2018).

“Also recorded” adds a separate entry of the source.

Experiment [1] addresses T1, GABAA (α1β2γ2s) receptors (UniProt P14867+P18508+P63138).
T1 construct: expressed in transfected cells; host or cells: Xenopus laevis oocytes (intranuclear plasmid injection, α1:β2:γ2 = 1:1:10)
Description: GABAA receptor two-electrode voltage clamp in oocytes at saturated drug concentration. Format: cell-based, human α1, rat β2 and γ2s. As to conditions: for GABAA % Direct Effect: drug response without receptor agonist; for GABAA % Direct Effect / GABAA % Agonist Effect: percent of control agonist peak, mean ±SEM, 5-6 oocytes, saturated drug; for GABAA % Agonist Effect: drug with γ-aminobutyric acid; for GABAA Drug Response: drug+agonist versus control agonist peak. The text has this: (§1) GABAA (α1β2γ2s) or NMDA (NR1/NR2A) receptors were expressed in oocytes and studied using standard two-electrode voltage clamp techniques. Hydrocarbons from 14 different organic functional groups were studied at saturated concentrations, and compounds within each group differed only by the carbon number at the ω-position or within a saturated ring. An effect on GABAA or NMDA receptors was defined as a 10% or greater reversible current change from baseline that was statistically different from zero.
(§2) An ovary from tricaine-anesthetized Xenopus laevis frogs was surgically removed using a protocol approved by the Institutional Animal Care and Use Committee at the University of California, Davis. Following manual disruption of the ovarian lobule septae, the ovary was incubated in 0.2% Type I collagenase (Worthington Biochemical, Lakewood, N.J.) to defolliculate oocytes which were washed and stored in fresh and filtered modified Barth's solution composed of 88 mM NaCl, 1 mM KCl, 2.4 mM NaHCO3, 20 mM HEPES, 0.82 mM MgSO4, 0.33 mM Ca(NO3)2, 0.41 mM CaCl2, 5 mM sodium pyruvate, gentamycin, penicillin, streptomycin, and corrected to pH=7.4. All salts and antibiotics were A.C.S. grade (Fisher Scientific, Pittsburgh, Pa.).
(§3) Clones used were provided as a gift from Dr. R. A. Harris (University of Texas, Austin) and were sequenced and compared to references in the National Center for Biotechnology Information database to confirm the identity of each gene. GABAA receptors were expressed using clones for the human GABAA α1 and the rat GABAA β2 and γ2s subunits in pCIS-II vectors. […] In separate oocytes, glutamate receptors were expressed using rat NMDA NR1 clones in a pCDNA3 vector and rat NMDA NR2A clones in a Bluescript vector. RNA encoding each subunit was prepared using a commercial transcription kit (T7 mMessage mMachine, Ambion, Austin, Tex.) was mixed in a 1:1 ratio, and 1-10 ng of total RNA was injected into oocytes and studied 1-2 days later.
Oocytes were studied in a 250 μL linear-flow perfusion chamber with solutions administered by syringe pump at 1.5 ml/min with gastight glass syringes and Teflon tubing. Oocyte GABAA currents were studied using standard two-electrode voltage clamping techniques at a holding potential of […] using a 250 μL channel linear-flow perfusion chamber with solutions administered by syringe pump at 1.5 mL/min.
After FR perfusion for 5 min, oocytes were exposed to 30 sec FR-GABA followed by another 5 min FR washout; this was repeated until stable GABAA-elicited peaks were obtained. Next, FR containing a saturated solution of the study drug (Table 2)—or for gaseous study compounds a vapor pressure equal to 90% of barometric pressure with balance oxygen—was used to perfuse the oocyte chamber for 2 min followed by perfusion with a FR-GABA solution containing the identical drug concentration for 30 sec.
(§4) Modulating drug responses were calculated as the percent of the control (baseline) peak as follows: 100·ID/IB, where ID and IB were the peak currents measured during agonist+drug and agonist baseline perfusions, respectively. When present, direct receptor activation by a drug was similarly calculated as a percent of the agonist response. […] A lack of receptor response (cut-off) was defined as a<10% change from baseline current that was statistically indistinguishable from zero using a two-tailed Student t-test.

Experiment [2] concerns the target T2, NMDA (NR1/NR2A) receptors (Rattus norvegicus, UniProt P35439+Q00959).
T2 construct: expressed in transfected cells; host or cells: Xenopus laevis oocytes (RNA injection, 1:1)
Briefly: NMDA receptor two-electrode voltage clamp in oocytes at saturated drug concentration. The conditions noted are these: for NMDA % Direct Effect: drug response without receptor agonist; for NMDA % Direct Effect / NMDA % Agonist Effect: percent of control agonist peak, mean ±SEM, 5-6 oocytes, saturated drug; for NMDA % Agonist Effect: drug with glutamate and glycine; for NMDA Drug Response: drug+agonist versus control agonist peak; for NMDA receptor modulation (in words): saturating aqueous concentration. The class given is cell-based.
Description: as §1, §2, §3
Briefly, baseline perfusion solutions were the same as for GABAA with the substitution of equimolar BaCl2 for calcium salts and the addition of 0.1 mM EGTA; this constituted barium frog Ringer's solution (BaFR). Agonist solutions for NMDA studies also contained 0.1 mM glutamate (E) and 0.01 mM glycine (G) to constitute a BaFREG solution.
The syringe pump and perfusion chamber apparatus as well as the clamp holding potential and baseline-agonist exposure protocols were identical to that described for the GABAA studies. The same test compounds, concentrations, and preparative methods were used in NMDA voltage clamp studies as in the GABAA voltage clamp studies (Table 2).
as §4

T2 sequence (Q00959 23-1464, other chains not shown): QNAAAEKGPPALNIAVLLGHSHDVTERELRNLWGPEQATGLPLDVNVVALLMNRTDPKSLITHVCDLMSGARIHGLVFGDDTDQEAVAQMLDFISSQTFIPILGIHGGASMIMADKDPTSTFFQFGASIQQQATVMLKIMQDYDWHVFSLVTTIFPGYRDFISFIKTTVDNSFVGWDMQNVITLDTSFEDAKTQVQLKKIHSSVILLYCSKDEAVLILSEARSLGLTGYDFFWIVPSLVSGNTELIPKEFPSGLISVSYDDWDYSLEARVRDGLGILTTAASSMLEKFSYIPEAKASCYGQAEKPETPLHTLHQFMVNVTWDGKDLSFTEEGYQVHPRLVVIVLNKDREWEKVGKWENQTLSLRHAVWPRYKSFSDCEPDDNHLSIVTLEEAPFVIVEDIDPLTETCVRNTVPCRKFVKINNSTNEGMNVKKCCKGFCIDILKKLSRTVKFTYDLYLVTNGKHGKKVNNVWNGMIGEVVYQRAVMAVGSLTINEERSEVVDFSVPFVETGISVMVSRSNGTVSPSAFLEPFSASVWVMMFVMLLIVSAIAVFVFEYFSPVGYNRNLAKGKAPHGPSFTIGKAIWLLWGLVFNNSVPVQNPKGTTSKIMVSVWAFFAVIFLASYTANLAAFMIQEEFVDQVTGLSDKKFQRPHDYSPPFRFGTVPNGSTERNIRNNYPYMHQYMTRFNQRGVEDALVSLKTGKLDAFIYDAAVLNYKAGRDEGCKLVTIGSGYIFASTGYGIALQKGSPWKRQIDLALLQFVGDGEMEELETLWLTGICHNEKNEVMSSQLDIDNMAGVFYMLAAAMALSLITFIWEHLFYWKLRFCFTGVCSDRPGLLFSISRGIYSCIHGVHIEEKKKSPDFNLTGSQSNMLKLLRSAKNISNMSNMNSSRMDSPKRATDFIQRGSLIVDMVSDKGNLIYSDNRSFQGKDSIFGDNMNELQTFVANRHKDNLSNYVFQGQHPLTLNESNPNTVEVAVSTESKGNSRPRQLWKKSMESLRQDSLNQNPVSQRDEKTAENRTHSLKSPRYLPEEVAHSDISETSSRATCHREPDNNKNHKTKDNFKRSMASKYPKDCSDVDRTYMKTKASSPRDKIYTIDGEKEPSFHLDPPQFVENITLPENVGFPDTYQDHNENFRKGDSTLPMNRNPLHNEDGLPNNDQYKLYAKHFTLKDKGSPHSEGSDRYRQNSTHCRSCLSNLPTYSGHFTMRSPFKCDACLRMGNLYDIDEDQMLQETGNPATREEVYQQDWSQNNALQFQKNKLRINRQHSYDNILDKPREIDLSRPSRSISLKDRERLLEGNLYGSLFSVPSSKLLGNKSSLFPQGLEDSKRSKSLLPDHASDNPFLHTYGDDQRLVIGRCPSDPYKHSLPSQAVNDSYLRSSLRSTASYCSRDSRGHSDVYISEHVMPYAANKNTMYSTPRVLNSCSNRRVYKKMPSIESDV
T1 sequence (P14867 28-456): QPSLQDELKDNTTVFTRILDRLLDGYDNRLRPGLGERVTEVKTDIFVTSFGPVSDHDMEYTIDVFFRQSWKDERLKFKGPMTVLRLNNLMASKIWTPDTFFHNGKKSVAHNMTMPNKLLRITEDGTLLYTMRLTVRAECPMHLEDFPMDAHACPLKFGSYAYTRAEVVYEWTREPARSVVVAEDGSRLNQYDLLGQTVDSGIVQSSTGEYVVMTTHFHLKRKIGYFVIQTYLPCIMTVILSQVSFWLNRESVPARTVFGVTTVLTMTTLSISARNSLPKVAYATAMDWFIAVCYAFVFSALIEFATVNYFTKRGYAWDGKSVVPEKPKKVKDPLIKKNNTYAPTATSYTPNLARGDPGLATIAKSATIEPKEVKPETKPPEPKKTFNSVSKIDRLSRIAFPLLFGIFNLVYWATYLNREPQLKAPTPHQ
T1 sequence (P63138 25-474 limits assumed): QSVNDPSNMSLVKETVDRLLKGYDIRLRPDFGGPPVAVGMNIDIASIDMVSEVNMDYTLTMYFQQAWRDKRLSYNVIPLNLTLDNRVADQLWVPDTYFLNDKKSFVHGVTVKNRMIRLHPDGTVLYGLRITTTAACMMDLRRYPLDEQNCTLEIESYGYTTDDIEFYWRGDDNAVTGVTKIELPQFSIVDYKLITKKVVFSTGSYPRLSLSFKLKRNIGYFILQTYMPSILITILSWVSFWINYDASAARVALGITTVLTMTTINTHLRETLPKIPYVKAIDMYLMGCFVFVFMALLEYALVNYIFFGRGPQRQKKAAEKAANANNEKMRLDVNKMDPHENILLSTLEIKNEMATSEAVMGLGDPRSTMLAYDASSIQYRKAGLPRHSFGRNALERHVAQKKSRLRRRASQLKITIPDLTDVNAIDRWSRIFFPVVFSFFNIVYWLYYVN
T1 sequence (P18508 39-466): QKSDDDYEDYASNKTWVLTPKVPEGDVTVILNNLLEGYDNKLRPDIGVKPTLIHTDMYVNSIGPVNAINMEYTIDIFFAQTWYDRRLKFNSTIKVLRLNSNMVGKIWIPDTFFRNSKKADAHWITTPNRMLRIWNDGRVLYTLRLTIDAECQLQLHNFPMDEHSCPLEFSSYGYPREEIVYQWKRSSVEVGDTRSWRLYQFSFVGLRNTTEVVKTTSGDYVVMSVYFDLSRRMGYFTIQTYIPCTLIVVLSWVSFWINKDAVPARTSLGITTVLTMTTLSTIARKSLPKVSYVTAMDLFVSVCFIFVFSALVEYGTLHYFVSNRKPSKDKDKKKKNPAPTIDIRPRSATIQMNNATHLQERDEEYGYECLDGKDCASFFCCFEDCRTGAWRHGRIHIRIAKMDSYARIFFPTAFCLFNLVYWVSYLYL

`CCCCC` [pentane]: in experiment [1], the “GABAA % Direct Effect” value was “none”, the “GABAA % Agonist Effect” value worked out at 321 ± 10% and the “GABAA Drug Response” value was “+ (potentiation (+) for drug+agonist responses greater than the control agonist peak)”. For the same compound, in experiment [1] (saturating aqueous concentration), the “GABAA receptor modulation (in words)” value is given as “positively modulate”. Besides, in experiment [2], the “NMDA % Direct Effect” value was “none”, the “NMDA % Agonist Effect” value came to 94 ± 3%, the “NMDA Drug Response” value was 0 (no response (0) for drug+agonist responses that differ by <10% from the control agonist peak) and the “NMDA receptor modulation (in words)” value is recorded as “does not modulate NMDA receptors; also recorded: no effect”.
Turning to `CCCCCCCCSCC` [1-(ethylthio)-octane], in experiment [1], the “GABAA % Direct Effect” value is on record as “none”, the “GABAA % Agonist Effect” value came to 120 ± 3% and the “GABAA Drug Response” value is on record as “+ (potentiation (+) for drug+agonist responses greater than the control agonist peak)”. In experiment [2], the “NMDA % Direct Effect” value is “none”, the “NMDA % Agonist Effect” value was found to be 101 ± 1% and the “NMDA Drug Response” value is given as 0 (no response (0) for drug+agonist responses that differ by <10% from the control agonist peak).
For the compound `C#CCCCC` [1-hexyne], in experiment [1], the “GABAA % Direct Effect” value stood at 5 ± 2%, the “GABAA % Agonist Effect” value is given as 418 ± 21% and the “GABAA Drug Response” value was “+ (potentiation (+) for drug+agonist responses greater than the control agonist peak)”. Also, in experiment [2], the “NMDA % Direct Effect” value is “none” and the “NMDA % Agonist Effect” value is recorded as 41 ± 6%.
With `CCCCCCCCF` [1-fluoroctane], in experiment [1], the “GABAA % Direct Effect” value is “none”, the “GABAA % Agonist Effect” value was determined as 182 ± 18% and the “GABAA Drug Response” value was “+ (potentiation (+) for drug+agonist responses greater than the control agonist peak)”. Besides, in experiment [2], the “NMDA % Direct Effect” value is listed as “none”, the “NMDA % Agonist Effect” value is 98 ± 1% and the “NMDA Drug Response” value is 0 (no response (0) for drug+agonist responses that differ by <10% from the control agonist peak).
Consider `CCCCCCCCCC=O` [decanal], for which, in experiment [1], the “GABAA % Direct Effect” value is on record as “none”, the “GABAA % Agonist Effect” value was 159 ± 5% and the “GABAA Drug Response” value is listed as “+ (potentiation (+) for drug+agonist responses greater than the control agonist peak)”. Moreover, in experiment [2], the “NMDA % Direct Effect” value was “none”, the “NMDA % Agonist Effect” value is given as 97 ± 3% and the “NMDA Drug Response” value is on record as 0 (no response (0) for drug+agonist responses that differ by <10% from the control agonist peak).
Turning to `CCCCCCC(=O)OCC` [ethyl heptanoate], in experiment [1], the “GABAA % Direct Effect” value was “none”, the “GABAA % Agonist Effect” value came out at 370 ± 34% and the “GABAA Drug Response” value was “+ (potentiation (+) for drug+agonist responses greater than the control agonist peak)”. Moreover, in experiment [2], the “NMDA % Direct Effect” value is “none” and the “NMDA % Agonist Effect” value is 78 ± 3%.
As to `CCCCCCOCCCCCC` [dihexylether], in experiment [1], the “GABAA % Direct Effect” value is recorded as “none”, the “GABAA % Agonist Effect” value came to 113 ± 1% and the “GABAA Drug Response” value was “+ (potentiation (+) for drug+agonist responses greater than the control agonist peak)”. Besides, in experiment [2], the “NMDA % Direct Effect” value is on record as “none”, the “NMDA % Agonist Effect” value is reported as 112 ± 4% and the “NMDA Drug Response” value is on record as 0 (no response (0) for drug+agonist responses that differ by <10% from the control agonist peak).
`CCCCCS` [1-pentanethiol]: in experiment [1], the “GABAA % Direct Effect” value was found to be 22 ± 8%, the “GABAA % Agonist Effect” value is 466 ± 57% and the “GABAA Drug Response” value is listed as “+ (potentiation (+) for drug+agonist responses greater than the control agonist peak)”. Moreover, in experiment [2], the “NMDA % Direct Effect” value is reported as “none”, the “NMDA % Agonist Effect” value came out at 85 ± 4% and the “NMDA receptor modulation (in words)” value is “inhibited NMDA receptors”. Also, the “NMDA receptor current inhibition” value in experiment [2] (hydrocarbons prior to the cut-off, saturated) was 15%.
As for `C1CCCC1` [cyclopentane], in experiment [1], the “GABAA % Direct Effect” value turned out to be 3 ± 2%, the “GABAA % Agonist Effect” value is reported as 196 ± 11% and the “GABAA Drug Response” value was “+ (potentiation (+) for drug+agonist responses greater than the control agonist peak)”. Besides, in experiment [2], the “NMDA % Direct Effect” value is “none” and the “NMDA % Agonist Effect” value is 83 ± 2%.
On to `CCCCCCCCCC(C)=O` [2-undecanone], for which, in experiment [1], the “GABAA % Direct Effect” value is reported as “none”, the “GABAA % Agonist Effect” value amounted to 230 ± 16% and the “GABAA Drug Response” value is on record as “+ (potentiation (+) for drug+agonist responses greater than the control agonist peak)”. In addition, in experiment [2], the “NMDA % Direct Effect” value is “none”, the “NMDA % Agonist Effect” value came to 98 ± 2% and the “NMDA Drug Response” value is recorded as 0 (no response (0) for drug+agonist responses that differ by <10% from the control agonist peak).
Regarding `CCCCCCCCCC(=O)OCC` [ethyl decanoate], in experiment [1], the “GABAA % Direct Effect” value is “none”, the “GABAA % Agonist Effect” value is recorded as 137 ± 2% and the “GABAA Drug Response” value is listed as “+ (potentiation (+) for drug+agonist responses greater than the control agonist peak)”. Also, in experiment [2], the “NMDA % Direct Effect” value is given as “none”, the “NMDA % Agonist Effect” value was determined as 98 ± 1% and the “NMDA Drug Response” value is 0 (no response (0) for drug+agonist responses that differ by <10% from the control agonist peak).
Turning to `CCCCCCCCCCO` [1-decanol], in experiment [1], the “GABAA % Direct Effect” value was “none”, the “GABAA % Agonist Effect” value was 386 ± 20% and the “GABAA Drug Response” value was “+ (potentiation (+) for drug+agonist responses greater than the control agonist peak)”. Moreover, in experiment [2], the “NMDA % Direct Effect” value is on record as “none” and the “NMDA % Agonist Effect” value was determined as 70 ± 3%.
In the case of `CCCCCCSCC` [1-(ethylthio)-hexane], in experiment [1], the “GABAA % Direct Effect” value was “none”, the “GABAA % Agonist Effect” value was 350 ± 57% and the “GABAA Drug Response” value is reported as “+ (potentiation (+) for drug+agonist responses greater than the control agonist peak)”. Also, in experiment [2], the “NMDA % Direct Effect” value is on record as “none” and the “NMDA % Agonist Effect” value is listed as 87 ± 1%.
Consider `CCCCCCS` [1-hexanethiol], for which, in experiment [1], the “GABAA % Direct Effect” value worked out at 8 ± 2%, the “GABAA % Agonist Effect” value was found to be 290 ± 41% and the “GABAA Drug Response” value is given as “+ (potentiation (+) for drug+agonist responses greater than the control agonist peak)”. Further, in experiment [2], the “NMDA % Direct Effect” value is “none”, the “NMDA % Agonist Effect” value is reported as 102 ± 3%, the “NMDA Drug Response” value was 0 (no response (0) for drug+agonist responses that differ by <10% from the control agonist peak) and the “NMDA receptor modulation (in words)” value is given as “did not”.
Turning to `CCCCCCCCCCCCCCCCCCN` [1-octadecanamine], in experiment [1], the “GABAA % Direct Effect” value was “none”, the “GABAA % Agonist Effect” value was determined as 146 ± 5% and the “GABAA Drug Response” value is “+ (potentiation (+) for drug+agonist responses greater than the control agonist peak)”. In addition, in experiment [2], the “NMDA % Direct Effect” value is “none” and the “NMDA % Agonist Effect” value was found to be 73 ± 4%.
As to `CCCCCCCCC(C)=O` [2-decanone], in experiment [1], the “GABAA % Direct Effect” value is “none”, the “GABAA % Agonist Effect” value stood at 476 ± 52% and the “GABAA Drug Response” value was “+ (potentiation (+) for drug+agonist responses greater than the control agonist peak)”. Moreover, in experiment [2], the “NMDA % Direct Effect” value is “none” and the “NMDA % Agonist Effect” value is 81 ± 1%.
